Laboratory results: patent US20050220803A1, “Use of an organ-specific self-pathogen for treatment of a non-autoimmune disease of said organ” (Yeda Research and Development Co. Ltd., priority 2002, published 2005)
Entries after “also recorded” stand apart in the source; their conditions may differ.

Experiments:
[1] = system: experimental autoimmune uveoretinitis (EAU); conditions: cited from earlier work; for uveitogenicity / immunopathogenicity: rat, in vivo
[2] = system: retinal ganglion cells (RGCs); assay: Partial optic nerve crush injury: RGC survival after active immunization; type: in vivo, rats (SPD, Fisher, Lewis)
spinal cord = assay: Recovery from spinal cord contusion (open-field locomotor score); type: in vivo; conditions: female Lewis rats; contusion at T8; 100 μg in CFA (0.5 mg/ml) within 1 h after contusion
[3] = system: retinal ganglion cells (RGCs); assay: RGC survival after immunization in the absence of insult; conditions: for percentage of RGC survival (mean ± SEM) vs PBS-injected controls: immunization without insult
[4] = system: retinal ganglion cells (RGCs); assay: Glutamate toxicity: RGC loss after intravitreal L-glutamate injection and immunization; type: in vivo; conditions: Lewis rats
[5] = system: experimental autoimmune uveoretinitis (EAU); assay: Induction of uveitis / EAU by the peptide; type: in vivo; conditions: Lewis rats
[6] = system: retinal ganglion cells (RGCs); conditions: glutamate insult or consequences of axonal injury; conditions where R16 protects; cited from earlier work
[7] = Fisher rats, 200 μg peptide in CFA immediately after optic nerve crush
[8] = Fisher rats, 200 μg peptide in CFA immediately after optic nerve crush, PBS control 109±12

## TSSEVATE [Peptide G-8]
[1]
  uveitogenicity / immunopathogenicity: uveitogenic
[2]; [7]
  RGC survival compared with PBS-injected controls: Significantly more RGCs
[2]; [8]
  surviving RGCs per square millimeter (mean ± SEM): 159±5 per square millimeter

## DTALASST [M-8 analog, M-8 in which asparagine at position 309 was replaced by alanine]
[1]
  uveitogenicity / immunopathogenicity: immunogenic, but not immunopathogenic
[2]; [7]
  RGC survival compared with PBS-injected controls: Significantly more RGCs
[2]; [8]
  surviving RGCs per square millimeter (mean ± SEM): 159±19 per square millimeter

## DTNLASST [Peptide M-8]
[1]
  uveitogenicity / immunopathogenicity: uveitogenic
[2]; [7]
  RGC survival compared with PBS-injected controls: Significantly more RGCs
[2]; [8]
  surviving RGCs per square millimeter (mean ± SEM): 153±10 per square millimeter

## ADGSSWEGVGVVPVD (ADGSSWEGVGVVPDV) [Peptide R16, immunodominant uveitogenic peptide, amino acids 1177-1191 of bovine IRBP]
[1]; Lewis rats, but not SPD or Fisher rats
  induction of uveitis: known to cause uveitis in Lewis rats
Spinal cord
  recovery of motor activity (open-field motor score) vs PBS in CFA: did not affect spinal cord recovery; also recorded: At no time were any differences observed
[2]; Fisher rats, 30 μg in CFA (2.5 mg/ml) immediately after optic nerve crush, PBS control 114±9
  surviving RGCs per square millimeter (mean ± SEM): 183±16 per square millimeter
[2]; Fisher rats, 30 μg in CFA one week before crush, booster 30 μg in IFA after injury, PBS control 89±10
  surviving RGCs per square millimeter (mean ± SEM): 165±22 per square millimeter
[2]; Lewis rats, 30 μg in CFA (2.5 mg/ml) immediately after optic nerve crush, PBS control 73±10
  surviving RGCs per square millimeter (mean ± SEM): 192±8 per square millimeter
[2]; Lewis rats, 30 μg in CFA one week before crush, booster 30 μg in IFA after injury, PBS control 95±22, not statistically significant
  surviving RGCs per square millimeter (mean ± SEM): 117±21 per square millimeter
[2]; Lewis rats, 192±8 vs 73±10 surviving RGCs/mm^2
  maximal benefit after a neuronal insult (surviving RGCs vs PBS): 263%
[2]; SPD rats, 30 μg in CFA (2.5 mg/ml) immediately after optic nerve crush, PBS control 60±14
  surviving RGCs per square millimeter (mean ± SEM): 150±13 per square millimeter
[3]; Fisher rats
  percentage of RGC survival (mean ± SEM) vs PBS-injected controls: 97±8%
[3]; Lewis rats, 2 weeks after vaccination
  percentage of RGC survival (mean ± SEM) vs PBS-injected controls: 83±5%
[3]; non-injured Lewis rats, 2 weeks after vaccination
  maximal loss of RGCs: ~17%
[4]; 400 nmol L-glutamate intravitreal, 30 μg peptide in CFA (0.5 mg/ml) immediately after, PBS in CFA control 28±4%
  percentage of RGC loss (mean ± SEM) relative to normal retinas: 14±2%
[4]; peptide emulsified in CFA at 2.5 mg/ml, compared with PBS in CFA, data not shown
  protection of RGCs from glutamate toxicity: not protective and even caused additional neuronal loss
[5]
  clinical onset of EAU, day after immunization: 10 days
  peak of inflammation (EAU), day after immunization: 14 days

## TSSEAATE [G-8 analog, G-8 in which valine at position 351 was replaced by alanine]
[1]
  uveitogenicity / immunopathogenicity: immunogenic, but not immunopathogenic
[2]; Fisher rats, 500 μg peptide in CFA immediately after optic nerve crush
  RGC survival compared with PBS-injected controls: Significantly more RGCs survived
[2]; Fisher rats, 500 μg peptide in CFA immediately after optic nerve crush, PBS control 90±11
  surviving RGCs per square millimeter (mean ± SEM): 175±15 per square millimeter

B1: MBP: myelin basic protein, a myelin antigen (protein, UniProt P02688 2-195, looked up)
Myelin basic protein: ASQKRPSQRHGSKYLATASTMDHARHGFLPRHRDTGILDSIGRFFSGDRGAPKRGSGKVPWLKQSRSPLPSHARSRPGLCHMYKDSHTRTTHYGSLPQKSQRTQDENPVVHFFKNIVTPRTPPPSQGKGRGLSLSRFSWGAEGQKPGFGYGGRASDYKSAHKGFKGAYDAQGTLSKIFKLGGRDSRSGSPMARR
[6]
  protective effect on RGCs by vaccination: no such protective effect
